These results are taken from ChEMBL document CHEMBL1201862, “PubChem BioAssay data set” (2004).

Some test systems named below: 786-0; COLO 205; HCT-116; HOP-62; MDA-MB-231; NCI-H226; NCI-H460; OVCAR-3; OVCAR-4; OVCAR-5; PC-3; SF-295; SK-OV-3; SW-620; TK-10; U-251; UACC-257; HCC 2998; SR.
Common to all, as to assay: NCI tumour cell line growth inhibition, 48 h

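Five concentrations, 48 hours, 96-well plates. At the GI50, growth is halved.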 The source made the active and inactive calls. Rule as the data show it: active = GI50 up to about 1.1 µM and inactive = higher. Where a SMILES comes first, the peptide text is derived from it. [ ]: non-standard residue; d: D form. The star is where a group is joined. ξ: configuration not given here. ξF = NC(Cc1ccccc1)C(=O)O; Cbz = O=C(OCc1ccccc1)*; Aib = CC(C)(N)C(=O)O; NHNH2 = NN* Bounds are passed on as bounds.

As for `O=C(O)c1ccccc1-c1ccccc1C(=O)Nc1ccc2c(c1)nc(O)c1ccccc12`, the GI50 in the test with 786-0 was > 100 µM (inactive); in the test with COLO 205 it was > 100 µM (inactive); with HCT-116 it was > 100 µM (inactive); in the test with HOP-62, > 100 µM (inactive); in the test on MDA-MB-231 it was 88.9 µM (inactive); in the test on NCI-H226 it was > 100 µM (inactive). The GI50 with NCI-H460, with OVCAR-3, with OVCAR-4, in the test with OVCAR-5, with PC-3 and in the test with SF-295 was > 100 µM (inactive) throughout. Further, the GI50 with SK-OV-3 is > 100 µM (inactive); in the test on SW-620, > 100 µM (inactive); in the test on TK-10, > 100 µM (inactive); with U-251, 51.9 µM (inactive); in the test with UACC-257, > 100 µM (inactive).

Turning to `Cc1cc(Cc2cc(C)c(N)cc2N)c(N)cc1N`, the GI50 with 786-0 is > 100 µM (inactive); in the test on COLO 205 it was > 100 µM (inactive); in the test on HCT-116 it was > 100 µM (inactive); with HOP-62 it was 93.5 µM (inactive); in the test with MDA-MB-231, > 100 µM (inactive); in the test on NCI-H226, > 100 µM (inactive). Also, the GI50 was 77.3 µM (inactive) with NCI-H460; > 100 µM (inactive) with OVCAR-3; > 100 µM (inactive) in the test with OVCAR-4; > 100 µM (inactive) with OVCAR-5; > 100 µM (inactive) with PC-3; > 100 µM (inactive) with SF-295. Also, the GI50 in the test on SK-OV-3, in the test with SW-620, in the test with TK-10, in the test on U-251 and in the test with UACC-257 was > 100 µM (inactive) in each case.

As for `O=C(/C=C/c1ccc(-c2ccccc2)cc1)NCc1ccc(C(=O)NCc2ccccc2)cc1`, the GI50 in the test on 786-0 is > 100 µM (inactive); with COLO 205 it was > 100 µM (inactive); in the test on HCC 2998 it was > 100 µM (inactive); in the test with HCT-116, > 100 µM (inactive); with HOP-62, 57.1 µM (inactive); with MDA-MB-231 it was > 100 µM (inactive). The GI50 in the test on NCI-H226, in the test on NCI-H460, in the test with OVCAR-3, with OVCAR-4, with OVCAR-5 and in the test on PC-3 was > 100 µM (inactive) each time. Also, the GI50 in the test on SF-295, with SK-OV-3, in the test with SW-620, in the test with TK-10, in the test with U-251 and in the test with UACC-257 was > 100 µM (inactive) throughout.

For the compound `CN[C@H]1CC[C@]23C[C@]24CC[C@]2(C)[C@@H]([C@H](C)N(C)C)CC[C@@]2(C)[C@@H]4CC[C@H]3C1(C)C`, the GI50 in the test with 786-0 is 6.78 µM (inactive); with COLO 205, 12.1 µM (inactive); in the test with HCC 2998, 13.4 µM (inactive); with HCT-116 it was 11.4 µM (inactive); with MDA-MB-231, 21.1 µM (inactive); in the test on NCI-H226 it was 16.5 µM (inactive). Besides, the GI50 with NCI-H460 is 18.2 µM (inactive); with OVCAR-3, 14.3 µM (inactive); with OVCAR-4, 17.7 µM (inactive); with OVCAR-5, 21 µM (inactive); in the test with PC-3, 9.08 µM (inactive); in the test with SF-295, 14.6 µM (inactive). The GI50 in the test with SK-OV-3 is 19.1 µM (inactive); with SW-620, 15.4 µM (inactive); with TK-10, 18.3 µM (inactive); with U-251 it was 13.7 µM (inactive); in the test with UACC-257, 15.1 µM (inactive).

As to `COc1cc(/C=N/NC(=O)c2ccc(NC(C)=O)cc2OC)ccc1O`, the GI50 was > 100 µM (inactive) in the test on 786-0; 56.1 µM (inactive) in the test on COLO 205; 61.8 µM (inactive) in the test on HCT-116; < 0.01 µM (active) in the test on NCI-H226; > 100 µM (inactive) in the test on OVCAR-3; > 100 µM (inactive) in the test on OVCAR-4. For the same compound, the GI50 in the test with OVCAR-5 is > 100 µM (inactive); in the test on PC-3, 43.5 µM (inactive); in the test with SF-295, 55 µM (inactive); in the test with SK-OV-3 it was > 100 µM (inactive); in the test with SR, > 100 µM (inactive); in the test with SW-620, > 100 µM (inactive).

Take `O=S(=O)(O)c1cccc2ccc(O)c(/N=N\c3ccc(S(=O)(=O)c4ccc(/N=N/c5c(O)ccc6cccc(S(=O)(=O)O)c56)cc4)cc3)c12`: the GI50 with 786-0, in the test on COLO 205, in the test with HCT-116, in the test with HOP-62, in the test on MDA-MB-231 and in the test on NCI-H226 was > 100 µM (inactive) each time. Also, the GI50 in the test on OVCAR-3, with OVCAR-4, with OVCAR-5, in the test with PC-3, in the test on SF-295 and in the test on SK-OV-3 was > 100 µM (inactive) throughout. Moreover, the GI50 in the test with SW-620, with TK-10, with U-251 and in the test on UACC-257 was > 100 µM (inactive) throughout.

Turning to `O=c1cc(CC(O)(C(F)(F)Cl)C(F)(F)Cl)[nH]n1-c1ccccc1`, the GI50 in the test with 786-0, with COLO 205, with HCC 2998, with HCT-116, with HOP-62 and in the test with MDA-MB-231 was > 100 µM (inactive) throughout. Further, the GI50 in the test on NCI-H226 was 66.4 µM (inactive); in the test with NCI-H460, > 100 µM (inactive); in the test with OVCAR-4, > 100 µM (inactive); with OVCAR-5, > 100 µM (inactive); in the test on SF-295 it was > 100 µM (inactive); with SK-OV-3 it was > 100 µM (inactive). The GI50 in the test on SR, in the test on SW-620, in the test with TK-10, with U-251 and with UACC-257 was > 100 µM (inactive) throughout.

Consider `CC(C)[Si](OC1=C(C(=O)N(C)c2ccccc2Cl)CCC1)(C(C)C)C(C)C`, for which the GI50 in the test on 786-0 was 21.7 µM (inactive); in the test on COLO 205, 17.8 µM (inactive); in the test on HCT-116, 19.5 µM (inactive); with HOP-62, 17.6 µM (inactive); with MDA-MB-231, 16 µM (inactive); in the test with NCI-H226, 21.1 µM (inactive). In addition, the GI50 with NCI-H460 was 22.4 µM (inactive); in the test with OVCAR-3 it was 16.7 µM (inactive); in the test on OVCAR-4 it was 16.3 µM (inactive); with OVCAR-5, 9.64 µM (inactive); in the test with SF-295 it was 14.2 µM (inactive); with SK-OV-3, 16.5 µM (inactive). Moreover, the GI50 with SW-620 was 24 µM (inactive); with TK-10 it was 17.8 µM (inactive); in the test on U-251 it was 16 µM (inactive); in the test on UACC-257 it was 19 µM (inactive).

With `O=C(CCc1ccccc1)ON1C(=S)C(c2ccccc2)(c2ccccc2)N=C1Sc1ccccc1`, the GI50 with 786-0 is 26.5 µM (inactive); in the test on COLO 205, 35.5 µM (inactive); in the test on HCC 2998, 46.6 µM (inactive); in the test on HCT-116 it was 19.3 µM (inactive); with HOP-62, 41.8 µM (inactive); in the test on MDA-MB-231, > 100 µM (inactive). Also, the GI50 in the test on NCI-H226 was 45.3 µM (inactive); in the test with NCI-H460, 12.4 µM (inactive); in the test with OVCAR-3, 60 µM (inactive); in the test on OVCAR-4 it was 58.1 µM (inactive); with OVCAR-5 it was > 100 µM (inactive); in the test with PC-3 it was 34.3 µM (inactive). For the same compound, the GI50 with SF-295 was 31 µM (inactive); with SK-OV-3 it was 45.1 µM (inactive); with TK-10 it was 89.9 µM (inactive); in the test with UACC-257 it was > 100 µM (inactive).

As to `Cc1nc2n(c1/C=C1/C(=O)Nc3ccccc31)CCS2`, the GI50 in the test on 786-0 is 64.1 µM (inactive); in the test with COLO 205, 20.2 µM (inactive); with HCC 2998, 20.8 µM (inactive); in the test on HCT-116, 33.6 µM (inactive); in the test with HOP-62, > 100 µM (inactive); in the test with MDA-MB-231, 32.7 µM (inactive). For the same compound, the GI50 in the test with NCI-H460 was 35.7 µM (inactive); in the test on OVCAR-3, 70.1 µM (inactive); in the test with OVCAR-4, 52.5 µM (inactive); in the test on OVCAR-5, > 100 µM (inactive); with PC-3, 26.5 µM (inactive); in the test on SF-295 it was 39.6 µM (inactive). For the same compound, the GI50 is 68.2 µM (inactive) in the test on SK-OV-3; 47.4 µM (inactive) in the test on SW-620; 31.6 µM (inactive) with TK-10; 42.4 µM (inactive) in the test on U-251; 33.3 µM (inactive) in the test on UACC-257.

`COc1cc(/C=C/C(=O)CC(=O)/C=C/c2ccc(OC(=O)CCCCC3CCSS3)c(OC)c2)ccc1OC(=O)CCCCC1CCSS1` (stereo unspecified): the GI50 with 786-0, in the test on COLO 205, with HCT-116, in the test with HOP-62, with MDA-MB-231 and in the test with NCI-H226 was > 100 µM (inactive) throughout. Also, the GI50 with NCI-H460, in the test on OVCAR-3, in the test on OVCAR-4, with OVCAR-5, in the test on PC-3 and in the test on SF-295 was > 100 µM (inactive) in each case. The GI50 in the test with SK-OV-3, with SW-620, in the test with TK-10, in the test with U-251 and with UACC-257 was > 100 µM (inactive) each time.

Consider `CC(C)(NC(=O)OCc1ccccc1)C(=O)NC(Cc1ccccc1)C(=O)NN` (stereo unspecified) (Cbz-[Aib]-[ξF]-NHNH2), for which the GI50 in the test with 786-0, with COLO 205, in the test on HOP-62, in the test with MDA-MB-231, in the test with NCI-H226 and with NCI-H460 was > 100 µM (inactive) each time. In addition, the GI50 in the test on OVCAR-3, in the test with OVCAR-4, in the test on OVCAR-5, in the test on PC-3, with SF-295 and in the test with SK-OV-3 was > 100 µM (inactive) throughout. The GI50 in the test on SW-620, in the test with TK-10, in the test with U-251 and in the test on UACC-257 was > 100 µM (inactive) throughout.
